Laboratory results from ChEMBL document CHEMBL2157957, “Strategies to mitigate the bioactivation of 2-anilino-7-aryl-pyrrolo[2,1-f][1,2,4]triazines: identification of orally bioavailable, efficacious ALK inhibitors” (J Med Chem, 2012).

Assays:
[1] = biological target: NPM/ALK (Nucleophosmin/ALK tyrosine kinase receptor) (Homo sapiens, UniProt Q9UM73); test: Inhibition of human NPM-ALK phosphorylation using 4-MeUP substrate by cell based assay
[2] = biological target: ALK tyrosine kinase receptor (Homo sapiens, UniProt Q9UM73); test: Inhibition of GST-tagged human ALK cytoplasmic domain (1058-1620) expressed in Sf21 insect cells using GST-tagged human recombinant PLC-gamma/substrate by ELISA
[3] = Half life in CD1 mouse liver microsomes at 0.5 uM preincubated for 10 mins before NADPH and UDPGA challenge; format: ADME, Microsome
[4] = Half life in human liver microsomes at 0.5 uM preincubated for 10 mins before NADPH and UDPGA challenge; format: ADME, Microsome
[5] = Half life in monkey liver microsomes at 0.5 uM preincubated for 10 mins before NADPH and UDPGA challenge; format: ADME, Macaca mulatta, Microsome; conditions: rhesus monkey
[6] = Half life in Sprague-Dawley rat liver microsomes at 0.5 uM preincubated for 10 mins before NADPH and UDPGA challenge; format: ADME, Microsome
[7] = biological target: Insulin receptor (Homo sapiens, UniProt P06213); test: Inhibition of IR
[8] = Clearance in Sprague-Dawley rat at 1 mg/kg, iv; format: ADME, organism-based; parameters: dose 1 mg/kg, route intravenous; conditions: in vivo
[9] = Oral bioavailability in Sprague-Dawley rat at 5 mg/kg; format: ADME, organism-based; conditions: in vivo
[10] = Half life in rat liver S9 fraction; format: ADME, subcellular
[11] = Half life in Sprague-Dawley rat at 1 mg/kg, iv; format: ADME, organism-based; parameters: dose 1 mg/kg, route intravenous; conditions: in vivo

Chain of ALK tyrosine kinase receptor (Q9UM73 whole entry, the tested form may be a part): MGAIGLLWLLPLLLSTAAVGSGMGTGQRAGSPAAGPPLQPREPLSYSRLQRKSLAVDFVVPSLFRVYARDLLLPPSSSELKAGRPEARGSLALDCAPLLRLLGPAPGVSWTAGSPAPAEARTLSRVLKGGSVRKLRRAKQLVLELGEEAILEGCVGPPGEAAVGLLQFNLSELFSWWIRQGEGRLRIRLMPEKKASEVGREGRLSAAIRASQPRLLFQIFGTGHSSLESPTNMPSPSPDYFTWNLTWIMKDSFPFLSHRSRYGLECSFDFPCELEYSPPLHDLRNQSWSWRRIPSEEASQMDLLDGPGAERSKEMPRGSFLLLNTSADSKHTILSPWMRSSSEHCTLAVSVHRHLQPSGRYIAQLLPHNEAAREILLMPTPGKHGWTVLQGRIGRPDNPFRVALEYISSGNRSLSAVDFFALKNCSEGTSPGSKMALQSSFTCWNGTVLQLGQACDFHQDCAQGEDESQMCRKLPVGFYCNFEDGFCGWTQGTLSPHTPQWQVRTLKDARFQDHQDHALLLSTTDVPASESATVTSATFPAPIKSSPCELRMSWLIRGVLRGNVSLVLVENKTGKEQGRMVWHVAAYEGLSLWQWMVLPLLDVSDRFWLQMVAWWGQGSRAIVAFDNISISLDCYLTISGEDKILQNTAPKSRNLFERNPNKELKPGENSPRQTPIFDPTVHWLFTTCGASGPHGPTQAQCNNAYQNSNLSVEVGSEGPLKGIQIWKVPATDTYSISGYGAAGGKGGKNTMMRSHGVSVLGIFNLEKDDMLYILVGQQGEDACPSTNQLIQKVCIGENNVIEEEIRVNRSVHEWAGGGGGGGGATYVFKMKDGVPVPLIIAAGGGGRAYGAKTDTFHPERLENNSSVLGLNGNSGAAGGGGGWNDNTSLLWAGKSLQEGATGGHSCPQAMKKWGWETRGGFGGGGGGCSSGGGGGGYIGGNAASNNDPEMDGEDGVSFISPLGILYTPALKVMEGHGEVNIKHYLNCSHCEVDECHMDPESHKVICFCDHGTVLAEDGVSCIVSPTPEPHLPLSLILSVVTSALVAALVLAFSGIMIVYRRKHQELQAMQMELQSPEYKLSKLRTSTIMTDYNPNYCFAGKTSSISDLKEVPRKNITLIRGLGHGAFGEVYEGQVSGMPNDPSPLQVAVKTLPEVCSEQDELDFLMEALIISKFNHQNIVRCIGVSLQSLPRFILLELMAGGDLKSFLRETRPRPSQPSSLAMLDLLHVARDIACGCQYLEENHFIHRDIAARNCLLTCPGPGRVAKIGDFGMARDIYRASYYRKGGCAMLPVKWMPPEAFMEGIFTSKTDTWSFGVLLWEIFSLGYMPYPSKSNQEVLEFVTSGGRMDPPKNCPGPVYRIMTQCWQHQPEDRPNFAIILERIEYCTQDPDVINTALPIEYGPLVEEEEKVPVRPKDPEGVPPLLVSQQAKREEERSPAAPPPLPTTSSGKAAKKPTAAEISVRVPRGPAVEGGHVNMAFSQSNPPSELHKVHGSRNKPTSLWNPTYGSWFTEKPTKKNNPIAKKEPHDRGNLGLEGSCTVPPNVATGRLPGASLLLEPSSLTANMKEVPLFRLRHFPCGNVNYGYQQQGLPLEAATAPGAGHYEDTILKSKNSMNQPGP
Chain of NPM/ALK (Nucleophosmin/ALK tyrosine kinase receptor) (Q9UM73 whole entry, the tested form may be a part): as above
Chain of NPM/ALK (Nucleophosmin/ALK tyrosine kinase receptor) (P06748 whole entry, further chain, the tested form may be a part): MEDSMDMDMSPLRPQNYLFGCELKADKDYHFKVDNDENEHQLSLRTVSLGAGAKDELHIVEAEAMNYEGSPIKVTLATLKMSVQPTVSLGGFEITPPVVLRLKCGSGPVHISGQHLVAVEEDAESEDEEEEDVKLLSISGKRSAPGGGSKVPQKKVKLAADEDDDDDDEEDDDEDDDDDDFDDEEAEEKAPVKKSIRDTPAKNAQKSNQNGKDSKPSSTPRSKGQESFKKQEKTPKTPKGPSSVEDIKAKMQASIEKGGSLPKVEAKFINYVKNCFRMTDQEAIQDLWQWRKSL
Chain of Insulin receptor (P06213 28-758 limits assumed): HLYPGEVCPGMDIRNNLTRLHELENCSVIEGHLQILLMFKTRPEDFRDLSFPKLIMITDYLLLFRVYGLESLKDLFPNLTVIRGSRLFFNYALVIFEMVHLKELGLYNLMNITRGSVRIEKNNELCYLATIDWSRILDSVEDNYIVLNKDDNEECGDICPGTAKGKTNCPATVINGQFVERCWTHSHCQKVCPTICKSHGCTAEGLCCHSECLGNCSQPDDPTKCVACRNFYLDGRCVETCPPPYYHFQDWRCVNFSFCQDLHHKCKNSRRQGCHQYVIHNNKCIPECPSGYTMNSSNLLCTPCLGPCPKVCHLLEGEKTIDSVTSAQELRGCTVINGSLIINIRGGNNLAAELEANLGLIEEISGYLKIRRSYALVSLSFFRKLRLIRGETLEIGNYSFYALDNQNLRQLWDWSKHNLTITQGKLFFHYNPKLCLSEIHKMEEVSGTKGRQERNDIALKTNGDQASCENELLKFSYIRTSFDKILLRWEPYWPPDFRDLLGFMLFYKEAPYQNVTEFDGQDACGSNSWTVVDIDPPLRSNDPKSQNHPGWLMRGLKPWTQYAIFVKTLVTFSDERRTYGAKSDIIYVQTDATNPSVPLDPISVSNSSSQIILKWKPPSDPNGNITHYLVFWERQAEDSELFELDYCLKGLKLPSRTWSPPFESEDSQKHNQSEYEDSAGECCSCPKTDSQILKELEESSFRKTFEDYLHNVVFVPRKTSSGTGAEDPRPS
Chain of Insulin receptor (P06213 763-1382 limits assumed): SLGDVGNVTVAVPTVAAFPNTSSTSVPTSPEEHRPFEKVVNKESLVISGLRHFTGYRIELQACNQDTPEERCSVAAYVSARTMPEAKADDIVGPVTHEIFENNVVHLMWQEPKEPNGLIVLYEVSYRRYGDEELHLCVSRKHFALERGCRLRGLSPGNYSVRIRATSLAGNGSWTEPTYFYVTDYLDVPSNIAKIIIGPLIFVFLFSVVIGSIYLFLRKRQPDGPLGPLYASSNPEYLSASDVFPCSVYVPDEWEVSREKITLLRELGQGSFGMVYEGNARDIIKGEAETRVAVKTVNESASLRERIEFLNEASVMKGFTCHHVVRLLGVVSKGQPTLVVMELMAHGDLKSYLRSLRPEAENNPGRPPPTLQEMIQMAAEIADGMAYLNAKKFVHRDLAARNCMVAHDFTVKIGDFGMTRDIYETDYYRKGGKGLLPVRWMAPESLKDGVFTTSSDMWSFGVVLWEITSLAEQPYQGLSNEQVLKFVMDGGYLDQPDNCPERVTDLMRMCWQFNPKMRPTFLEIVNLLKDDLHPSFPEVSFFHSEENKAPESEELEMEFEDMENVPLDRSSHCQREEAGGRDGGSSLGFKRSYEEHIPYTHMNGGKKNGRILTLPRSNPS

SMILES: COc1cc(N2CCN(C[C@H](C)O)CC2)c(F)cc1Nc1ncc2ccc(-c3ccccc3N(C)S(C)(=O)=O)n2n1
- IC50 [1]: 0.2 µM
- IC50 [2]: 0.014 µM

SMILES: COc1cc(C2CCN(CC(N)=O)CC2)ccc1Nc1ncc2c(O)cc(-c3ccccc3N(C)S(C)(=O)=O)n2n1
- half-life at 0.5 µM [3]: < 5 min
- half-life at 0.5 µM [4]: < 5 min
- IC50 [2]: 0.011 µM
- half-life at 0.5 µM [5]: < 5 min
- half-life at 0.5 µM [6]: < 5 min

SMILES: COc1cc(C2CCN(C[C@H](O)CO)CC2)ccc1Nc1ncc2ccc(-c3ccccc3OC)n2n1
- IC50 [1]: 0.03 µM
- IC50 [7]: 0.164 µM
- clearance [8]: 2.34 L/h/kg
- bioavailability [9]: 15%
- half-life [10]: > 40 min
- IC50 [2]: 0.0029 µM
- half-life at 0.5 µM [6]: > 40 min
- half-life [11]: 120 min

SMILES: COc1cc(C2CCNCC2)ccc1Nc1ncc2ccc(-c3ccccc3N(C)S(C)(=O)=O)n2n1
- IC50 [1]: 0.04 µM
- half-life at 0.5 µM [3]: > 40 min
- half-life at 0.5 µM [4]: 7 min
- IC50 [2]: 0.01 µM
- half-life at 0.5 µM [5]: < 5 min
- half-life at 0.5 µM [6]: 22 min

SMILES: COc1cc(C2CCN(CCO)CC2)ccc1Nc1ncc2ccc(-c3ccccc3N(C)S(C)(=O)=O)n2n1
- IC50 [1]: 0.06 µM
- half-life at 0.5 µM [3]: > 40 min
- half-life at 0.5 µM [4]: < 5 min
- IC50 [2]: 0.006 µM
- half-life at 0.5 µM [5]: < 5 min
- half-life at 0.5 µM [6]: 21 min

SMILES: COc1cc(C2CCN(CC(N)=O)CC2)ccc1Nc1ncc2ccc(-c3ccncc3OC)n2n1
- IC50 [1]: 0.15 µM
- IC50 [7]: 0.41 µM
- IC50 [2]: 0.009 µM

SMILES: COc1cc(C2CCN(C(=O)C3CCN3)CC2)ccc1Nc1ncc2ccc(-c3ccccc3OC)n2n1 (racemic)
- IC50 [1]: 0.2 µM
- IC50 [7]: 0.335 µM
- clearance [8]: 1.92 L/h/kg
- bioavailability [9]: 15%
- half-life [10]: > 40 min
- IC50 [2]: 0.011 µM
- half-life at 0.5 µM [6]: > 40 min
- half-life [11]: 150 min

SMILES: CNC(=O)CN1CCC(c2ccc(Nc3ncc4ccc(-c5ccccc5OC)n4n3)c(OC)c2)CC1
- IC50 [1]: 0.1 µM
- IC50 [7]: 0.161 µM
- half-life at 0.5 µM [4]: < 12 min
- IC50 [2]: 0.01 µM
- half-life at 0.5 µM [5]: < 12 min

SMILES: COc1cc(C2CCN(C[C@@H](C)O)CC2)ccc1Nc1ncc2ccc(-c3ccccc3N(C)S(C)(=O)=O)n2n1
- IC50 [1]: 0.07 µM
- half-life at 0.5 µM [3]: > 40 min
- half-life at 0.5 µM [4]: < 5 min
- IC50 [2]: 0.006 µM
- half-life at 0.5 µM [5]: < 5 min
- half-life at 0.5 µM [6]: 11 min

SMILES: COc1cc(C2CCN(CC(O)CF)CC2)ccc1Nc1ncc2ccc(-c3ccccc3OC)n2n1 (racemic)
- IC50 [1]: 0.08 µM
- IC50 [7]: 0.149 µM
- clearance [8]: 3.72 L/h/kg
- bioavailability [9]: 16%
- half-life [10]: > 40 min
- IC50 [2]: 0.003 µM
- half-life at 0.5 µM [6]: > 40 min
- half-life [11]: 84 min

SMILES: C[C@H](O)CN1CCN(c2cc(F)c(Nc3ncc4ccc(-c5ccccc5N(C)S(C)(=O)=O)n4n3)cc2F)CC1
- IC50 [2]: 0.091 µM

SMILES: COc1cc(C2CCN(CC(N)=O)CC2)ccc1Nc1ncc2ccc(-c3ccccc3C#N)n2n1
- IC50 [1]: 0.25 µM
- IC50 [7]: 0.747 µM
- IC50 [2]: 0.019 µM
